Results on two molecules are retold here after US10988522B2, “Proteolically resistant cyclotides with angiotensin 1-7 like activity” (University of Southern California, priority 2016, dated 2021).

The procedure of data set [1]:
This was accomplished by incubating the corresponding peptides in human serum at 37° C. The quantitative analysis of undigested polypeptides was performed using liquid chromatography coupled with tandem mass spectrometry (LC-MS/MS). Naturally occurring MCoTI-cyclotides present a very rigid structure, which makes them extremely stable to proteolytic degradation.
Human serum was spun down at 15,000 rpm for 10 min to separate the lipid components. Peptides (about 15 μg dissolved in 15 μl PBS) were mixed with 150 μl human serum and incubated in a 37° C. water bath. Aliquot samples (15 μL) were taken at different time points and serum protein were precipitated with about 70% MeCN at 4° C. for 10 min. The supernatant was separated, lyophilized, dissolved in 5% MeCN in water containing 0.1% formic acid, and analyzed by HPLC-MS/MS.

The next data set concerns human lung cancer cells. The conditions noted are these: through activation of MAS1; cited from earlier work.
For data set [2], the system named is human lung adenocarcinoma xenografts. The conditions noted are these: cited from earlier work.
The test system of the next data set is cyclooxygenase-2 (COX-2). The conditions noted are these: xenograft tumor; cited from earlier work.
In another data set the test system is cyclooxygenase 1 (COX-1). The conditions noted are these: same xenograft tumor; cited from earlier work.
A further data set addresses T1, recombinant human MAS1 (Homo sapiens, UniProt P04201).
T1 construct: expressed in transfected cells; host or cells: CHO cells, stably transfected with pTEJ-8 vector
T1 sequence (P04201 1-325): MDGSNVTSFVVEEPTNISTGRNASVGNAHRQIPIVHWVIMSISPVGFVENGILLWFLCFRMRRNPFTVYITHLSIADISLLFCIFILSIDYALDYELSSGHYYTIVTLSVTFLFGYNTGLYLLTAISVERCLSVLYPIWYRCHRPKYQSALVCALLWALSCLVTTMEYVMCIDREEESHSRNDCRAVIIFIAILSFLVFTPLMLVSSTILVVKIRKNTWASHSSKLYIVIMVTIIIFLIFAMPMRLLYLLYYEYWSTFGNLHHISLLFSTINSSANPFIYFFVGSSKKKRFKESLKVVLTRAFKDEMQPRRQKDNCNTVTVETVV
In words: MAS1 activation: cell-based fluorescence assay of NO release in CHO cells stably transfected with MAS1. The conditions noted are these: for intracellular concentration of NO in the presence of MAS1 antagonist A779: A779 at 0.1 μM for 15 min before addition; for intracellular concentration of NO (fluorescence): no antagonist, 2 hours. The procedure:
CHO cells stably transfected with pTEJ-8 vector expressing recombinant human MAS1 clone are grown to confluency. After washing, cells are incubated for a short time in 700 μL of supplemented Tyrode's salts containing 10 μM 2-phenyl-4,4,5,5-tetramethylimidazoline-1-oxyl-3-oxide (PTIO), 100 μM 2,3-diaminonaftalene (DAN), and 1 mM L-arginine. When using antagonist for competition assays, cells are exposed to MAS1 antagonist A779 (D-Ala^7-AT 1-7) at 0.1 μM for 15 min before addition of the cyclotides to be tested. Different concentrations of the cyclotides to be analyzed are added to the cell medium and the plates are agitated for 1 min before being placed into the incubator for 2 hours. After 2 hours, the cellular supernatants are transferred to opaque 96 well plates, and the amount of released NO is measured by fluorescence (λex=380 nm, λem=425 nm).

For the molecule `CC[C@H](C)[C@H](NC(=O)[C@H](Cc1ccc(O)cc1)NC(=O)[C@@H](NC(=O)[C@H](CCCNC(=N)N)NC(=O)[C@@H](N)CC(=O)O)C(C)C)C(=O)N[C@@H](Cc1c[nH]cn1)C(=O)N1CCC[C@H]1C(=O)O` [AT1-7, DRVYIHP], the “τ1/2 in human serum” value in data set [1] was determined as 44 ± 3 min. Also, the “serum-stimulated growth of human lung cancer cells” value in the data set with human lung cancer cells was “reduce serum-stimulated growth of human lung cancer cells both in vitro and in vivo”. Also, the tumor growth result in data set [2] is on record as “inhibit tumor growth”. In addition, the COX-2 activity entry with cyclooxygenase-2 (COX-2) was “reduction in cyclooxygenase-2 (COX-2) activity”. The COX-1 activity result in the data set on cyclooxygenase 1 (COX-1) is reported as “no effect”. At recombinant human MAS1 (MAS1-transfected CHO cells), the “intracellular concentration of NO in the presence of MAS1 antagonist A779” value is given as “A similar profile was obtained” and the “intracellular concentration of NO (fluorescence)” value is reported as “increase the intracellular concentration of NO in a dose dependent manner”.
Turning to “GGVCPKILQRCRRDSDCPGACICRGNGYCGSGXRVYIHE [MCo-AT1-7, MCoTI-I cyclotide with AT1-7-derived peptide (Asp1 to diaminopropionic acid, Pro7 to Glu) grafted onto loop 6 via two isopeptide bonds]”, in the data set with recombinant human MAS1 (MAS1-transfected CHO cells), the “MAS1 agonist activity (summary statement)” value is given as “potent MAS1 agonist, with similar activity to that of the peptide AT1-7”; the “intracellular concentration of NO in the presence of MAS1 antagonist A779” value was “no increase in the intracellular concentration of NO was detected”; the “intracellular concentration of NO (fluorescence)” value is on record as “increase the intracellular concentration of NO in a dose dependent manner”. Moreover, in the data set with recombinant human MAS1 (at 10 nM, NO release assay), the “activity relative to that of peptide AT1-7” value is “about 90%”.
